The text below walks through data of ChEMBL document CHEMBL2396625 (Bioorg Med Chem Lett, 2013).

The term inhibition denotes the share of the control response that was lost under treatment.

Sequence of Protein tyrosine phosphatase type IVA 3 (O75365 whole entry): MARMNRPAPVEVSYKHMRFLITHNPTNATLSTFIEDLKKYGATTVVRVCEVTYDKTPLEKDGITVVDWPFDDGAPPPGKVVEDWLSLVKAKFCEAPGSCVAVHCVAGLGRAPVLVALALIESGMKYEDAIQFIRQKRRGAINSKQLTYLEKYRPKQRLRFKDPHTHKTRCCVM

The test system of the first data set is DLD-1. The experiment in a line: Antimigratory activity against human DLD1 cells overexpressing PRL3 at 10 ug/ml after 20 hrs by crystal violet staining-based light microscopic analysis relative to control. The format is functional. Conditions: DLD-1, 20 h.
Take `O=C1NC(=S)S/C1=C\C=C\c1ccccc1OCc1ccccc1C(F)(F)F`: at 10 µg/mL the inhibition was 80%.
For the compound `O=C1NC(=S)S/C1=C\C=C\c1cccnc1`, the inhibition at 10 µg/mL came to 45%.
As to `O=C1NC(=S)S/C1=C\C=C\c1ccccc1NC(=O)c1ccccc1`, 10 µg/mL produced 68% inhibition.
In turn, `O=C1NC(=S)S/C1=C\C=C\c1ccccc1OC(=O)c1ccccc1` had an inhibition at 10 µg/mL of 40%.
`Cc1ccccc1COc1ccccc1/C=C/C=C1\SC(=S)NC1=O` had an inhibition at 10 µg/mL of 73%.
With `O=C1NC(=S)S/C1=C\C=C\c1cc(Br)ccc1OCc1ccccc1Br`, 10 µg/mL produced 71% inhibition.
The compound `COc1cccc(COc2ccccc2/C=C/C=C2\SC(=S)NC2=O)c1` showed an inhibition at 10 µg/mL of 82%.
In turn, `O=C1NC(=O)/C(=C/C=C/c2ccccc2OCc2ccccc2Br)S1` returned an inhibition at 10 µg/mL of 50%.
In turn, `O=C1NC(=S)S/C1=C\C=C\c1ccccc1OCc1ccncc1` displayed an inhibition at 10 µg/mL of 62%.
Compound `O=C1NC(=S)S/C1=C\C=C\c1ccccc1Cl` returned an inhibition at 10 µg/mL of 80%.
On to `O=C1NC(=S)S/C1=C\C=C\c1ccccc1O`, for which the inhibition at 10 µg/mL was determined as 65%.
The same measure, in the same setting: under `O=C1NC(=S)S/C1=C\C=C\c1ccccc1` stands 81%; under `O=C1NC(=S)S/C1=C\C=C\c1ccccc1OCc1ccccc1Br`, 78%.
Still for that read-out and setting: the figure for `O=C1NC(=S)S/C1=C\C=C\c1ccccc1OS(=O)(=O)c1ccccc1` is 80%; for `COc1ccccc1/C=C/C=C1\SC(=S)NC1=O` it is 69%; for `O=C1NC(=S)S/C1=C\C=C\c1ccccc1OCc1ccccc1` it is 65%.

Another data set addresses Protein tyrosine phosphatase type IVA 3 (Homo sapiens, UniProt O75365). The data set can be described thus: Inhibition of human His6-tagged full length PRL3 assessed as inhibition of DiFMUP dephosphorylation at 5 ug/ml relative to control.
Conditions: not given
For `O=C1NC(=S)S/C1=C\C=C\c1ccccc1OCc1ccccc1C(F)(F)F`, the inhibition was 40.8%.
Consider `O=C1NC(=S)S/C1=C\C=C\c1cccnc1`, for which the inhibition was found to be 47.1%.
On to `O=C1NC(=S)S/C1=C\C=C\c1ccccc1NC(=O)c1ccccc1`, for which the inhibition worked out at 35.2%.
The same measure, in the same setting: the figure for `O=C1NC(=S)S/C1=C\C=C\c1ccccc1OC(=O)c1ccccc1` is 30.6%.
For the compound `Cc1ccccc1COc1ccccc1/C=C/C=C1\SC(=S)NC1=O`, the inhibition was 52.8%.
Consider `O=C1NC(=S)S/C1=C\C=C\c1cc(Br)ccc1OCc1ccccc1Br`, for which the inhibition worked out at 40.3%.
For `COc1cccc(COc2ccccc2/C=C/C=C2\SC(=S)NC2=O)c1`, the inhibition amounted to 52.9%.
As for `O=C1NC(=O)/C(=C/C=C/c2ccccc2OCc2ccccc2Br)S1`, the inhibition was found to be 22.5%.
As to `O=C1NC(=S)S/C1=C\C=C\c1ccccc1OCc1ccncc1`, the inhibition came out at 39.4%.
With `O=C1NC(=S)S/C1=C\C=C\c1ccccc1Cl`, the inhibition was 53.9%.
Consider `O=C1NC(=S)S/C1=C\C=C\c1ccccc1O`, for which the inhibition was determined as 51.9%.
As for `O=C1NC(=S)S/C1=C\C=C\c1ccccc1`, the inhibition was determined as 37.4%.
Same read-out and setting: the figure for `O=C1NC(=S)S/C1=C\C=C\c1ccccc1OCc1ccccc1Br` is 63.1%; for `O=C1NC(=S)S/C1=C\C=C\c1ccccc1OS(=O)(=O)c1ccccc1` it is 64.2%.
Still for that read-out and setting: under `COc1ccccc1/C=C/C=C1\SC(=S)NC1=O` stands 41.7%; under `O=C1NC(=S)S/C1=C\C=C\c1ccccc1OCc1ccccc1`, 49.5%.

System in a further data set: not listed separately
The data set can be described thus: Cytotoxicity against human DLD1 cells overexpressing PRL3 assessed as cell viability at 10 ug/ml after 24 hrs by WST-1 assay relative to control. It counts as cell-based. Conditions: DLD-1 cells overexpressing PRL3, read-out: Activity.
As for `O=C1NC(=S)S/C1=C\C=C\c1ccccc1OCc1ccccc1C(F)(F)F`, the viability at 24 h, 10 ug/ml was 41.5%.
Same read-out and setting: under `O=C1NC(=S)S/C1=C\C=C\c1cccnc1` stands 105%.
Same read-out and setting: the figure for `O=C1NC(=S)S/C1=C\C=C\c1ccccc1NC(=O)c1ccccc1` is 97.1%.
The same measure, in the same setting: the figure for `O=C1NC(=S)S/C1=C\C=C\c1ccccc1OC(=O)c1ccccc1` is 99.2%; for `Cc1ccccc1COc1ccccc1/C=C/C=C1\SC(=S)NC1=O` it is 75.5%; for `O=C1NC(=S)S/C1=C\C=C\c1cc(Br)ccc1OCc1ccccc1Br` it is 72.3%.
As to `COc1cccc(COc2ccccc2/C=C/C=C2\SC(=S)NC2=O)c1`, the viability at 24 h, 10 ug/ml amounted to 87.1%.
With `O=C1NC(=O)/C(=C/C=C/c2ccccc2OCc2ccccc2Br)S1`, the viability at 24 h, 10 ug/ml worked out at 37.7%.
On to `O=C1NC(=S)S/C1=C\C=C\c1ccccc1OCc1ccncc1`, for which the viability at 24 h, 10 ug/ml worked out at 96.5%.
With `O=C1NC(=S)S/C1=C\C=C\c1ccccc1Cl`, the viability at 24 h, 10 ug/ml came out at 81.9%.
As to `O=C1NC(=S)S/C1=C\C=C\c1ccccc1O`, the viability at 24 h, 10 ug/ml came to 96.3%.
With `O=C1NC(=S)S/C1=C\C=C\c1ccccc1`, the viability at 24 h, 10 ug/ml is 96.6%.
On to `O=C1NC(=S)S/C1=C\C=C\c1ccccc1OCc1ccccc1Br`, for which the viability at 24 h, 10 ug/ml was 78.8%.
On to `O=C1NC(=S)S/C1=C\C=C\c1ccccc1OS(=O)(=O)c1ccccc1`, for which the viability at 24 h, 10 ug/ml amounted to 83.1%.
As to `COc1ccccc1/C=C/C=C1\SC(=S)NC1=O`, the viability at 24 h, 10 ug/ml amounted to 98.8%.
On to `O=C1NC(=S)S/C1=C\C=C\c1ccccc1OCc1ccccc1`, for which the viability at 24 h, 10 ug/ml turned out to be 87.9%.
